The values that follow come from patent US20250163074A1, “CDK Inhibitors And Their Use As Pharmaceuticals” (Prelude Therapeutics Incorporated, priority 2020, published 2025).

The target of one test is CDK4/Cyclin D1 (Homo sapiens (Human), UniProt P11802). Description: CDK4/CyclinD1 enzymatic activity assay (TR-FRET). To be noted: CDK4/CyclinD1 1 nM, ATP 2 mM, read-out: CDK4_D1 IC50. The class given is biochemical. On the procedure:
CDK4/CyclinD1 Enzymatic Activity Assay
(§1) The inhibitory activity of compounds was evaluated in vitro using TR-FRET assay with white 384-well low volume microplate (Greiner Bio-One). CDK4/Cyclin D1 catalyzed phosphorylation of peptide in the presence and absence of compounds was measured. IC50 determination. Recombinant protein complex CDK4/Cyclin D1, expressed from insect cell, was purchased from ProQinase. Testing compounds were dissolved in DMSO at 0.1 mM and tested in 9-dose IC50 mode. The reaction mixture was prepared by mixing CDK4/CyclinD1 (1 nM final), ULight-4E-BP1 (100 nM final, Perkinelmer, TRF0128-D), and ATP (2 mM final) in assay buffer (20 mM of HEPES pH 7.4, 1 mM of EGTA, 0.05% BSA, 0.005% Tween 20, and 1 mM TCEP). The compound of interest in DMSO was added to each well in 3-fold serial dilution by dispenser (TECAN D300E). After 20 minutes preincubation at room temperature, MgCl2 (10 mM final) was added to initiate the reaction. Following a 60 minutes incubation at 37° C., the reaction was stopped by addition of 2 μL of quenching buffer consisting of Lance detection buffer (Perkinelmer CR97-100C), 2 nM LANCE Ultra Europium-anti-P-4E-BP1 (Perkinelmer, TRF0216-D), 10 mM EDTA, and incubate at room temperature for additional 60 minutes in dark. The reaction signal was measured by Envision multimode plate reader (PerkinElmer, 2102-0010). IC50 values were determined by fitting the data to the standard 4 parameters with Hill Slope using GraphPad Prism software.
(In general: In TR-FRET formats the signal depends on donor and acceptor labels being close together.)

The target of the next test is CDK6/Cyclin D1 (Homo sapiens (Human), UniProt Q00534). Description: CDK6/CyclinD1 enzymatic activity assay (TR-FRET). The class given is biochemical. The note with it: CDK6/Cyclin D1 1 nM, ATP 250 μM, read-out: CDK6_D1 IC50. How it is done: CDK6/CyclinD1 Enzymatic Activity Assay
as §1, with “CDK6/Cyclin” for “CDK4/Cyclin”, “measured and used in” for “measured.”, “CDK6/Cyclin D1” for “CDK4/CyclinD1”, “(250 μM” for “(2 mM”, “temperature, 0.1 μL” for “temperature,”

In test [1] the test system is MCF7 adenocarcinoma cell line. Nature of the test: Cell proliferation studies in MCF7 cells (ATP-Lite). Format: cell-based. The note with it: 10 days incubation, cell viability by ATP-Lite luminescence, read-out: PROLIFERATION_CTG_MCF7 IC50. How it is done: Cell Proliferation Studies in MCF7 Cells
Cell proliferation studies were conducted in MCF7 adenocarcinoma cell line. Cells were maintained in DMEM (Corning, Catalog #: 10-013-CV) supplemented with 10% v/v FBS (Gibco, Catalog #: 26140-079), 1% v/v Penicillin Streptomycin (Gibco, Catalog #15140-122) Cells were seeded in 384-well plates at a density of 100 or 200 cells/well. Compounds dissolved in DMSO were plated in quadruplicate using a digital dispenser (D300E, Tecan) and tested on a 9-point 3-fold serial dilution. Cells were incubated for 10 days in a 37° C. active humidified incubator at 5% CO2. A media exchange and second compound addition were performed on day 5. Cell viability was measured using the ATP-Lite 1-Step Luminescence reagent (Perkin Elmer, Catalog #: 6016731) as per manufacturer's instructions. Luminescence signal was measured with a multimode plate reader (Envision 2105, Perkin Elmer). Raw data files were imported to Dotmatics Screening Ultra for IC50 analysis. Luminescence values were normalized to both background and DMSO controls to obtain a percentage of viable cells relative to DMSO vehicle control.

Structures are written as SMILES. Where two headings read alike, the source gives them in different places.

Chain of CDK4/Cyclin D1 (P11802 whole entry): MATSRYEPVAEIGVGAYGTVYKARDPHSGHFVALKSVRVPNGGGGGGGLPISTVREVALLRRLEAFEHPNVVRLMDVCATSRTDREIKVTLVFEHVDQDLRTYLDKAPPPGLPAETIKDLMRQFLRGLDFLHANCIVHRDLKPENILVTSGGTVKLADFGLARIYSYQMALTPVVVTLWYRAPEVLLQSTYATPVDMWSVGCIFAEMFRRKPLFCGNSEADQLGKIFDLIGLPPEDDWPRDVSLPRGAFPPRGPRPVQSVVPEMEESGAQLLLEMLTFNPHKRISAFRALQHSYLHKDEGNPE
Chain of CDK4/Cyclin D1 (P24385 whole entry partner): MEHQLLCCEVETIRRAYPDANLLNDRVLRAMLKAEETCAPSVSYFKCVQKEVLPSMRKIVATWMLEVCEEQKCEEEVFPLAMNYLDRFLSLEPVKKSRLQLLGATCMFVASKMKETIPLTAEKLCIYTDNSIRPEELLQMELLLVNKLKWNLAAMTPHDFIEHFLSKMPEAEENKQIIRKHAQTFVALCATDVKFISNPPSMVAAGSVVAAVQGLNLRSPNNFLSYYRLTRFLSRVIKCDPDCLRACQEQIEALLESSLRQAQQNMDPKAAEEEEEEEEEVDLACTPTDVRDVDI
Chain of CDK6/Cyclin D1 (Q00534 whole entry): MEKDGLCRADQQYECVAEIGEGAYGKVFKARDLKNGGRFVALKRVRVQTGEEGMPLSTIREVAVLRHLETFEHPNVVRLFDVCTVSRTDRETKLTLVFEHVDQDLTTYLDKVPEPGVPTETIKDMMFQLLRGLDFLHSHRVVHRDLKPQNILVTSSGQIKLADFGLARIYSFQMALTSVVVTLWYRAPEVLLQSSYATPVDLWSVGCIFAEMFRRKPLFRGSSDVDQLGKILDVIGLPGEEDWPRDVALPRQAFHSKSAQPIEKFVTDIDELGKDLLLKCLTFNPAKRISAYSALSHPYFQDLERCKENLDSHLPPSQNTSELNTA
Chain of CDK6/Cyclin D1 (P24385 whole entry partner): as the sequence (P24385 whole entry partner) above

Turning to `CN1CCC(c2ccc(Nc3ncc(F)c(-c4cc5c(s4)C4(CCCCC4)CN(C)C5=O)n3)nc2)CC1` [Example 5, 2′-(5-Fluoro-2-((5-(1-methylpiperidin-4-yl)pyridin-2-yl)amino)pyrimidin-4-yl)-5′-methyl-5′,6′-dihydro-4′H-spiro[cyclohexane-1,7′-thieno[3,2-c]pyridin]-4′-one], the IC50 on CDK4/Cyclin D1 is at most 20 nM; at CDK6/Cyclin D1, 20 to 200 nM; in test [1] (Homo sapiens, 240 h) it was at most 20 nM.

In the case of `CN1CCC(c2ccc(Nc3ncc(F)c(-c4cc5c(s4)C4(CC4)N(C)C5=O)n3)nc2)CC1` [Example 8], the IC50 at CDK4/Cyclin D1 is at most 20 nM; at CDK6/Cyclin D1, at most 20 nM; in test [1] it was 20 to 200 nM.

Regarding `CN1CCC(c2ccc(Nc3ncc(F)c(-c4sc5c(c4Cl)C(=O)N(C)C54CC4)n3)nc2)CC1` [Example 9, 3′-chloro-2′-(5-Fluoro-2-((5-(1-methylpiperidin-4-yl)pyridin-2-yl)amino)pyrimidin-4-yl)-5′-methylspiro[cyclopropane-1,6′-thieno[2,3-c]pyrrol]-4′(5′H)-one], the IC50 at CDK4/Cyclin D1 was at most 20 nM; at CDK6/Cyclin D1, at most 20 nM; in test [1] (Homo sapiens, 240 h), 20 to 200 nM.

For the compound `CN1CCC(c2ccc(Nc3ncc(F)c(-c4sc5c(c4C(F)(F)F)C(=O)N(C)C54CC4)n3)nc2)CC1` [Example 10, 2′-(5-Fluoro-2-((5-(1-methyl-piperidin-4-yl)pyridin-2-yl)amino)pyrimidin-4-yl)-5′-methyl-3′-(trifluoromethyl)spiro[cyclopropane-1,6′-thieno[2,3-c]pyrrol]-4′(5′H)-one], the IC50 was at most 20 nM on CDK4/Cyclin D1; at most 20 nM at CDK6/Cyclin D1; 20 to 200 nM in test [1] (Homo sapiens, 240 h).

With `CCN1CCN(Cc2ccc(Nc3ncc(F)c(-c4sc5c(c4C)C(=O)N(C)C54CC4)n3)nc2)CC1` [Example 13, 2′-(2-((5-((4-Ethylpiperazin-1-yl)methyl)pyridin-2-yl)amino)-5-fluoropyrimidin-4-yl)-3′,5′-dimethylspiro[cyclopropane-1,6′-thieno[2,3-c]pyrrol]-4′(5′H)-one], the IC50 at CDK4/Cyclin D1 is at most 20 nM; at CDK6/Cyclin D1, at most 20 nM; in test [1] (Homo sapiens, 240 h), 20 to 200 nM.

As for `CCN1CC2(C1)CN(c1ccc(Nc3ncc(F)c(-c4cc5c(s4)C4(CCCC4)N(CC)C5=O)n3)nc1)C2` [Example 21, 5′-Ethyl-2′-(2-((5-(6-ethyl-2,6-diazaspiro[3.3]heptan-2-yl)pyridin-2-yl)amino)-5-fluoropyrimidin-4-yl)spiro[cyclopentane-1,6′-thieno[2,3-c]pyrrol]-4′(5′H)-one], the IC50 is at most 20 nM at CDK4/Cyclin D1; at most 20 nM on CDK6/Cyclin D1; 20 to 200 nM in test [1] (Homo sapiens, 240 h).

Turning to `CCN1C(=O)c2cc(-c3nc(Nc4ccc(C5CCN(C)CC5)cn4)ncc3F)sc2C12CCCC2` [Example 22, 5′-Ethyl-2′-(5-fluoro-2-((5-(1-methylpiperidin-4-yl)pyridin-2-yl)amino)pyrimidin-4-yl)spiro[cyclopentane-1,6′-thieno[2,3-c]pyrrol]-4′(5′H)-one], the IC50 at CDK4/Cyclin D1 is at most 20 nM; at CDK6/Cyclin D1, 20 to 200 nM; in test [1] (Homo sapiens, 240 h), 20 to 200 nM.

Consider `CCN1CCC(c2ccc(Nc3ncc(F)c(-c4cc5c(s4)C4(CCCC4)N(C)C5=O)n3)nc2)CC1` [Example 23, 2′-(2-((5-(1-Ethylpiperidin-4-yl)pyridin-2-yl)amino)-5-fluoropyrimidin-4-yl)-5′-methylspiro[cyclopentane-1,6′-thieno[2,3-c]pyrrol]-4′(5′H)-one], for which the IC50 at CDK4/Cyclin D1 is at most 20 nM; at CDK6/Cyclin D1 it was at most 20 nM; in test [1] (Homo sapiens, 240 h) it was 20 to 200 nM.

Regarding `CN1CCC(c2ccc(Nc3ncc(F)c(-c4sc5c(c4C(F)(F)F)C(=O)N(C)C54CCCC4)n3)nc2)CC1` [Example 26, 2′-(5-Fluoro-2-((5-(1-methylpiperidin-4-yl)pyridin-2-yl)amino)pyrimidin-4-yl)-5′-methyl-3′-(trifluoromethyl)spiro[cyclopentane-1,6′-thieno[2,3-c]pyrrol]-4′(5′H)-one], the IC50 on CDK4/Cyclin D1 is at most 20 nM; on CDK6/Cyclin D1 it was at most 20 nM; in test [1] (Homo sapiens, 240 h) it was at most 20 nM.

On to `CN1CCC(c2ccc(Nc3ncc(F)c(-c4sc5c(c4Cl)C(=O)N(C)C54CCCC4)n3)nc2)CC1` [Example 27, 3′-Chloro-2′-(5-fluoro-2-((5-(1-methylpiperidin-4-yl)pyridin-2-yl)amino)pyrimidin-4-yl)-5′-methylspiro[cyclopentane-1,6′-thieno[2,3-c]pyrrol]-4′(5′H)-one], for which the IC50 at CDK4/Cyclin D1 was at most 20 nM; at CDK6/Cyclin D1 it was at most 20 nM; in test [1] (Homo sapiens, 240 h), at most 20 nM.

As for `CCN1CC2(C1)CN(c1ccc(Nc3ncc(C)c(-c4sc5c(c4C)C(=O)N(C)CC54CC4)n3)nc1)C2` [Example 42, 2-[2-[[5-(6-Ethyl-2,6-diazaspiro[3.3]heptan-2-yl)pyridin-2-yl]amino]-5-methylpyrimidin-4-yl]-3,5-dimethylspiro[6H-thieno[3,2-c]pyridine-7,1′-cyclopropane]-4-one], the IC50 at CDK4/Cyclin D1 is at most 20 nM; in test [1] (Homo sapiens, 240 h), 20 to 200 nM.

As for `CCN1CC2(C1)CN(c1ccc(Nc3ncc(Cl)c(-c4sc5c(c4C)C(=O)N(C)CC54CC4)n3)nc1)C2` [Example 44], the IC50 on CDK4/Cyclin D1 is at most 20 nM; in test [1], 20 to 200 nM.

For the compound `CCN1CCC12CN(c1ccc(Nc3ncc(F)c(-c4cc5c(s4)C4(CCC4)CN(C)C5=O)n3)nc1)C2` [Example 51, 2′-(2-((5-(1-Ethyl-1,6-diazaspiro[3.3]heptan-6-yl)pyridin-2-yl)amino)-5-fluoropyrimidin-4-yl)-5′-methyl-5′,6′-dihydro-4′H-spiro[cyclobutane-1,7′-thieno[3,2-c]pyridin]-4′-one], the IC50 was at most 20 nM on CDK4/Cyclin D1 and 20 to 200 nM in test [1] (Homo sapiens, 240 h).

Consider `CN1CC2(CCCC2)c2sc(-c3nc(Nc4ccc(N5CCN6CCC5CC6)cn4)ncc3F)cc2C1=O` [Example 64, 2-[2-[[5-(1,4-Diazabicyclo[3.2.2]nonan-4-yl)pyridin-2-yl]amino]-5-fluoropyrimidin-4-yl]-5-methylspiro[6H-thieno[3,2-c]pyridine-7,1′-cyclopentane]-4-one], for which the IC50 at CDK4/Cyclin D1 is at most 20 nM; in test [1] (Homo sapiens, 240 h) it was 20 to 200 nM.

`Cc1c(-c2nc(Nc3ccc(C4CCN(C(C)C)CC4)nn3)ncc2F)sc2c1C(=O)N(C)CC21CC1` [Example 83, 2′-(5-Fluoro-2-((6-(1-isopropylpiperidin-4-yl)pyridazin-3-yl)amino)pyrimidin-4-yl)-3′,5′-dimethyl-5′,6′-dihydro-4′H-spiro[cyclopropane-1,7′-thieno[3,2-c]pyridin]-4′-one]: the IC50 is at most 20 nM on CDK4/Cyclin D1 and 20 to 200 nM in test [1] (Homo sapiens, 240 h).
